From patent US10813982B2, “Composition comprising an oxidoreductase enzyme and its antibacterial use” (SYSTAGENIX WOUND MANAGEMENT, LIMITED, priority 2015, dated 2020)

Experiments:
[1] = system: S. aureus biofilms; assay: Biofilm model: 24 hour exposure against 24 hour old single species biofilm, viable count; format: cell-based, Staphylococcus aureus; settings: 30 μl per disc/biofilm, 37° C., 80 rpm shaking, FIG. 2
Method: (§1) Stationary phase cultures of S. aureus or P. aeruginosa grown in TSB were adjusted to 0.5 McFarland (c. 1.5×10^8 CFU/mL) and diluted a further 1:4 ratio (1 mL inoculum with 3 mL 0.1% Bactopeptone). A viable count was taken of each inoculum preparation. Sterile discs (6 mm diameter×1.0 mm) housed in 24 well culture plates were inoculated with 80 μL of culture. 0.2 ml of a test media was then added, the assay plates were parafilmed and incubated for 24 h at 37 degrees Celsius with 80 rpm shaking to allow biofilm formation. Unused wells were filled with PBS to increase humidity and prevent evaporation. After 24 hours incubation, cellulose discs/biofilms were rinsed with PBS to remove any […] vegetative cells and transferred to 150 μl of fresh media. For the honey (as the source of glucose) and Prontosan®, 30 μl was added to each test disc. […] Assuming the lowest concentration (100,[…]), 3.5 mg (350 U) was added to 3.5 ml of DPBS to give a 100 U/ml working stock which was filter sterilised. […] 30 μl of each was added to a disc/biofilm. The assay plates were parafilmed and incubated for 24 hours at 37° C. with 80 rpm shaking to allow biofilm disruption. Unused wells were filled with PBS to increase humidity and prevent evaporation. […]

[2] = system: P. aeruginosa biofilms; assay: as above; format: cell-based, Pseudomonas aeruginosa; settings: 30 μl per disc/biofilm, 37° C., 80 rpm shaking, FIG. 1
Method: as §1, with “sterilised. For the Pseudomonas experiment, the working stock was diluted in PBS to give a 10 U/ml solution-30 μl was added to a disc/biofilm.” for “sterilised.”

## glucose oxidase [glucose oxidase alone]
[1]
  inhibition of 24 hour old single species biofilms of S. aureus: no inhibition
[2]
  inhibition of 24 hour old single species biofilms of P. aeruginosa: no inhibition
